The target in one experiment is T1, Carbonic anhydrase (Candida albicans (strain SC5314 / ATCC MYA-2876) (Yeast), UniProt Q5AJ71).
T1 sequence (Q5AJ71 whole entry): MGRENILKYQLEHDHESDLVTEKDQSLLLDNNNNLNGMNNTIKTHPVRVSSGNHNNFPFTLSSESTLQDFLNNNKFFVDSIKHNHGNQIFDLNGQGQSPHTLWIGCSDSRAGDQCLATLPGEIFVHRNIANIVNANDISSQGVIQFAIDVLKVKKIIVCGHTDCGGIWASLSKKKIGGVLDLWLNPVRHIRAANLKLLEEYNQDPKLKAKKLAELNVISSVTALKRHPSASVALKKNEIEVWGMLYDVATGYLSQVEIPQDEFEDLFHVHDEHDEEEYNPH
In words: inhibition of Candida albicans recombinant Nce103 after 15 mins by stopped-flow CO2 hydration assay.

Experiment [1] can be described thus: inhibition of Cryptococcus neoformans recombinant Can2 after 15 mins by stopped-flow CO2 hydration assay.
Experiment [2] is described as follows: Selectivity ratio of IC50 for human CA1 to IC50 for Cryptococcus neoformans Can2.
A short description of experiment [3]: Selectivity ratio of IC50 for human CA2 to IC50 for Cryptococcus neoformans Can2.
Experiment [4] concerns the target T2, Carbonic anhydrase (Candida albicans (strain SC5314 / ATCC MYA-2876) (Yeast)) (UniProt Q5AJ71).
T2 sequence (whole entry): T1 sequence (Q5AJ71 whole entry)
Kind of experiment: Ratio of compound to acetazolamide activity for inhibition of Candida albicans recombinant Nce103.

`Cc1cc(C)[n+](NC(=O)c2[nH]c3ccc(S(N)(=O)=O)cc3c2-c2ccccc2Br)c(C)c1.[O-][Cl+3]([O-])([O-])[O-]`: the Ki on Carbonic anhydrase worked out at 45 nM; in experiment [1], 12.1 nM.

For `Cc1cc(C)[n+](NC(=O)c2[nH]c3ccc(S(N)(=O)=O)cc3c2-c2cccc(Cl)c2)c(C)c1.[O-][Cl+3]([O-])([O-])[O-]`, the Ki at Carbonic anhydrase came to 31 nM; in experiment [1] it was 4.4 nM.

For `NNC(=O)c1[nH]c2ccc(S(N)(=O)=O)cc2c1-c1ccc(Br)cc1`, the figures for the Ki (on Carbonic anhydrase; in experiment [1]) were 94 nM and 118 nM, respectively.

Take `Cc1cc(C)[n+](NC(=O)c2[nH]c3ccc(S(N)(=O)=O)cc3c2-c2cccc(Br)c2)c(C)c1.[O-][Cl+3]([O-])([O-])[O-]`: the Ki at Carbonic anhydrase was 48 nM; in experiment [1] it was 14.3 nM.

Take `Cc1cc(C)[n+](NC(=O)c2[nH]c3ccc(S(N)(=O)=O)cc3c2-c2c(F)c(F)c(F)c(F)c2F)c(C)c1.[O-][Cl+3]([O-])([O-])[O-]`: the inhibition constant Ki came out at 5.1 nM at Carbonic anhydrase and 60.1 nM in experiment [1].

Take `COc1cccc(-c2c(C(=O)NN)[nH]c3ccc(S(N)(=O)=O)cc23)c1`: the Ki at Carbonic anhydrase was determined as 128 nM; in experiment [1], 12 nM.

With `NNC(=O)c1[nH]c2ccc(S(N)(=O)=O)cc2c1-c1ccccc1Br`, the figures for the Ki (at Carbonic anhydrase; in experiment [1]) were 81 nM and 62 nM, respectively.

With `NNC(=O)c1[nH]c2ccc(S(N)(=O)=O)cc2c1-c1ccccc1`, the Ki at Carbonic anhydrase amounted to 85 nM; in experiment [1] it was 72 nM.

In the case of `Cc1cc(C)[n+](NC(=O)c2[nH]c3ccc(S(N)(=O)=O)cc3c2-c2ccc(Br)cc2)c(C)c1.[O-][Cl+3]([O-])([O-])[O-]`, the results for the Ki (on Carbonic anhydrase; in experiment [1]) were 53 nM and 10.9 nM, respectively.

With `NNC(=O)c1[nH]c2ccc(S(N)(=O)=O)cc2c1-c1cccc(Cl)c1`, the Ki at Carbonic anhydrase came out at 52 nM; in experiment [1], 7.4 nM.

On to `Cc1cc(C)[n+](NC(=O)c2[nH]c3ccc(S(N)(=O)=O)cc3c2-c2cccc(F)c2)c(C)c1.[O-][Cl+3]([O-])([O-])[O-]`, for which the results for the Ki (at Carbonic anhydrase; in experiment [1]) were 24 nM and 8.3 nM, respectively.

As for `Cc1cccc(-c2c(C(=O)N[n+]3c(C)cc(C)cc3C)[nH]c3ccc(S(N)(=O)=O)cc23)c1.[O-][Cl+3]([O-])([O-])[O-]`, the Ki came out at 64 nM at Carbonic anhydrase and 6.1 nM in experiment [1].

With `Cc1cc(C)[n+](NC(=O)c2[nH]c3ccc(S(N)(=O)=O)cc3c2-c2ccccc2C)c(C)c1.[O-][Cl+3]([O-])([O-])[O-]`, the figures for the Ki (on Carbonic anhydrase; in experiment [1]) were 62 nM and 6.5 nM, respectively.

Turning to `NNC(=O)c1[nH]c2ccc(S(N)(=O)=O)cc2c1-c1ccc(F)cc1`, the Ki worked out at 61 nM at Carbonic anhydrase and 8.6 nM in experiment [1].

For `Cc1cccc(-c2c(C(=O)NN)[nH]c3ccc(S(N)(=O)=O)cc23)c1`, the Ki at Carbonic anhydrase worked out at 43 nM; in experiment [1], 9.1 nM. For the same compound, the Ratio IC50 in experiment [2] amounted to 80.2; in experiment [3], 5.1.

As for `Cc1ccc(-c2c(C(=O)N[n+]3c(C)cc(C)cc3C)[nH]c3ccc(S(N)(=O)=O)cc23)cc1.[O-][Cl+3]([O-])([O-])[O-]`, the Ki was determined as 41 nM at Carbonic anhydrase and 5.9 nM in experiment [1].

`NNC(=O)c1[nH]c2ccc(S(N)(=O)=O)cc2c1-c1ccccc1F`: the figures for the Ki (on Carbonic anhydrase; in experiment [1]) were 47 nM and 7.9 nM, respectively.

With `NNC(=O)c1[nH]c2ccc(S(N)(=O)=O)cc2c1-c1c(F)c(F)c(F)c(F)c1F`, the Ratio in experiment [4] was found to be 17.6. Moreover, in experiment [1], the Ki turned out to be 103 nM.

Take `NNC(=O)c1[nH]c2ccc(S(N)(=O)=O)cc2c1-c1ccc(Cl)cc1`: the Ki at Carbonic anhydrase was determined as 55 nM; in experiment [1] it was 70 nM.

As for `Cc1cc(C)[n+](NC(=O)c2[nH]c3ccc(S(N)(=O)=O)cc3c2-c2ccc(Cl)cc2)c(C)c1.[O-][Cl+3]([O-])([O-])[O-]`, the Ki amounted to 29 nM at Carbonic anhydrase and 3.1 nM in experiment [1].

With `NNC(=O)c1[nH]c2ccc(S(N)(=O)=O)cc2c1-c1cccc(F)c1`, the Ki at Carbonic anhydrase amounted to 54 nM; in experiment [1], 7.2 nM.

Regarding `Cc1ccccc1-c1c(C(=O)NN)[nH]c2ccc(S(N)(=O)=O)cc12`, the figures for the Ki (on Carbonic anhydrase; in experiment [1]) were 78 nM and 9.2 nM, respectively.

As for `Cc1cc(C)[n+](NC(=O)c2[nH]c3ccc(S(N)(=O)=O)cc3c2-c2ccccc2F)c(C)c1.[O-][Cl+3]([O-])([O-])[O-]`, the figures for the Ki (on Carbonic anhydrase; in experiment [1]) were 19 nM and 16.2 nM, respectively.

`NNC(=O)c1[nH]c2ccc(S(N)(=O)=O)cc2c1-c1ccccc1Cl`: the Ki stood at 45 nM on Carbonic anhydrase and 8 nM in experiment [1]. For the same compound, the Ratio IC50 in experiment [2] is 80; in experiment [3] it was 4.8.

Take `Cc1cc(C)[n+](NC(=O)c2[nH]c3ccc(S(N)(=O)=O)cc3c2-c2ccc(F)cc2)c(C)c1.[O-][Cl+3]([O-])([O-])[O-]`: the Ki at Carbonic anhydrase was found to be 21 nM; in experiment [1], 8.7 nM.

For `Cc1cc(C)[n+](NC(=O)c2[nH]c3ccc(S(N)(=O)=O)cc3c2-c2ccccc2)c(C)c1.[O-][Cl+3]([O-])([O-])[O-]`, the Ki was 42 nM on Carbonic anhydrase and 16.5 nM in experiment [1].

As for `Cc1ccc(-c2c(C(=O)NN)[nH]c3ccc(S(N)(=O)=O)cc23)cc1`, the figures for the Ki (at Carbonic anhydrase; in experiment [1]) were 52 nM and 10.5 nM, respectively.

Take `NNC(=O)c1[nH]c2ccc(S(N)(=O)=O)cc2c1-c1cccc(Br)c1`: the values for the Ki (at Carbonic anhydrase; in experiment [1]) were 87 nM and 93 nM, respectively.

As to `Cc1cc(C)[n+](NC(=O)c2[nH]c3ccc(S(N)(=O)=O)cc3c2-c2ccccc2Cl)c(C)c1.[O-][Cl+3]([O-])([O-])[O-]`, the values for the Ki (on Carbonic anhydrase; in experiment [1]) were 33 nM and 15.4 nM, respectively.

As for `COc1cccc(-c2c(C(=O)N[n+]3c(C)cc(C)cc3C)[nH]c3ccc(S(N)(=O)=O)cc23)c1.[O-][Cl+3]([O-])([O-])[O-]`, the Ki at Carbonic anhydrase is 119 nM; in experiment [1] it was 8.3 nM.

(Values after ChEMBL document CHEMBL1156996 (Bioorg Med Chem Lett, 2010).)
